From the supplement of paper PMC10307832

Tests used:
Experiment in all cases: relative viability (nuclei count vs DMSO), 5 days (fraction); higher = more cells survive
Mirin + Foretinib = compound: N=C1NC(=O)/C(=C/c2ccc(O)cc2)S1 [Mirin] + COc1cc2c(Oc3ccc(NC(=O)C4(C(=O)Nc5ccc(F)cc5)CC4)cc3F)ccnc2cc1OCCCN1CCOCC1 [Foretinib] (partner 0.25 µM)
In short: (§1)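 Five library-drug doses in √10 steps were combined with a fixed anchor-drug dose, or a single drug was given alone, by pin tool to lung cancer cell lines in 1536-well plates the day after seeding. Nuclei were stained and counted after 5 days. Relative viability is the nuclei count in treated wells over that in vehicle wells, taken as the median of duplicate plates.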

[1] = compound: CCC1=CN=CN=C1N2CCN(CC2)CC3=NC4=C(N3)C=C(C=C4)C(F)(F)F + COc1cc2c(Oc3ccc(NC(=O)C4(C(=O)Nc5ccc(F)cc5)CC4)cc3F)ccnc2cc1OCCCN1CCOCC1 [Foretinib] (partner 0.25 µM)
In short: as §1

[2] = compound: CCC1=CN=CN=C1N2CCN(CC2)CC3=NC4=C(N3)C=C(C=C4)C(F)(F)F + CC(=O)Nc1cccc(-n2c(=O)n(C3CC3)c(=O)c3c(Nc4ccc(I)cc4F)n(C)c(=O)c(C)c32)c1 [Trametinib] (partner 0.02 µM)
In short: as §1

[3] = compound: CCC1=CN=CN=C1N2CCN(CC2)CC3=NC4=C(N3)C=C(C=C4)C(F)(F)F + Cc1cc(Nc2cc(N3CCN(C)CC3)nc(Sc3ccc(NC(=O)C4CC4)cc3)n2)n[nH]1 [Tozasertib] (partner 0.1 µM)
In short: as §1

Cell Line	relative viability (Mirin + Foretinib; first compound 0.25 µM)	relative viability (Mirin + Foretinib; first compound 0.7906 µM)	relative viability (Mirin + Foretinib; first compound 2.5 µM)	relative viability (Mirin + Foretinib; first compound 7.906 µM)	relative viability (Mirin + Foretinib; first compound 25 µM)	relative viability ([1]; first compound 0.04 µM)	relative viability ([1]; first compound 0.1265 µM)	relative viability ([1]; first compound 0.4 µM)	relative viability ([1]; first compound 1.265 µM)	relative viability ([1]; first compound 4 µM)	relative viability ([2]; first compound 0.04 µM)	relative viability ([2]; first compound 0.1265 µM)	relative viability ([2]; first compound 0.4 µM)	relative viability ([2]; first compound 1.265 µM)	relative viability ([2]; first compound 4 µM)	relative viability ([3]; first compound 0.04 µM)	relative viability ([3]; first compound 0.1265 µM)	relative viability ([3]; first compound 0.4 µM)	relative viability ([3]; first compound 1.265 µM)	relative viability ([3]; first compound 4 µM)
NCI-H2170	1.05	1	1.02	0.928	0.98	1.01	0.975	0.94	0.867	1	0.946	0.911	0.873	0.777	0.851	0.719	0.74	0.648	0.662	0.643
HCC-366	0.855		0.888	0.997	0.869	0.856	1.01	0.915	0.877	0.851	0.344	0.372	0.349	0.285	0.269	0.138	0.148	0.131	0.143	0.0757
NCI-H2405	1.04	1.04	1.01	1.03	1.07	1.06	1.02	1.06		1.12	0.676	0.666	0.624		0.68	0.779	0.759	0.741		0.685
COR-L 105	1.06	0.865	1.25	1.17	0.781	1.25	0.941	1.04	0.941	1.16	0.42	0.418	0.501	0.416	0.44	0.374	0.34	0.327	0.395	0.379
201T	1.1	1.24	1.17	1.06	1.17	1.21	1.07	1.09	1.02	1.07	0.725	0.73	0.747	0.711	0.694	0.923	0.936	0.9	0.846	0.919
NCI-H2228	0.689	0.883	0.974	1.1	0.752	1.09	0.848	0.647	0.746	0.801		0.471	0.397	0.221	0.586	0.252	0.249	0.22	0.335	0.253
LC-2-ad	0.97	1	0.988	0.907	0.759	0.927	0.88	0.922	0.803	0.857	0.976	0.814	0.938	0.921	0.871	0.442	0.497	0.424	0.406	0.413
NCI-H2085	0.948	0.999	0.941	1.1	1	0.971	1.13	0.792	0.76	0.959	0.456	0.369	0.401	0.43	0.491	0.815	0.71	0.794	0.698	0.633
NCI-H358	0.734	0.742	0.739	0.565	0.406	0.746	0.626	0.686	0.509	0.651	0.126	0.173	0.171	0.127	0.142	0.0937	0.0935	0.101	0.112	0.109
H3255	1.11	0.825	0.929	0.676	0.998	0.828	0.872	0.894	0.739	0.776	0.639	0.583	0.572	0.522	0.599	0.63	0.413	0.674	0.436	0.715
NCI-H23	0.8		1.13	0.891	0.773	0.822	0.99	0.961	0.801	0.906	0.405	0.409	0.396	0.375	0.385	0.341	0.361	0.346	0.305	0.361
CAL-12T	1.16		1.12	1.04	1.31	1.08	1.1	1.07	1.12	0.968	0.256	0.352	0.356	0.267	0.37	0.367	0.294	0.328	0.429	0.289
A-427	1.06		1.07	1.05	0.607	1.03	1.11	1.03	0.959	0.534	0.631	0.731	0.675	0.615	0.637	0.209	0.218	0.21	0.174	0.177
HARA	0.817		0.845	0.902	0.708	0.85	0.952	0.836		0.828	0.879	0.76	0.454	0.472	0.716	0.106	0.108	0.0892		0.0831
NCI-H1793	0.731		0.739	0.777	0.559	0.7	0.771	0.568		0.669	0.459	0.4	0.397	0.362	0.349	0.352	0.325	0.303		0.256
NCI-H1623	0.787	0.708	0.865	0.716	0.625	0.835	0.819	0.767	0.749	0.794						0.368	0.422	0.38	0.423	0.425
NCI-H2009	1.19	1.33	1.2	1.19	1.17	1.23	1.25	1.16	1.24	1.21	0.346	0.299	0.281	0.182	0.246	0.778	0.698	0.727	0.746	0.678
ABC-1	1.35	1.08	0.971	1.03	0.587	1.32	1.05	1.12	1.24	0.886						0.176	0.172	0.172	0.152	0.196
IA-LM	1.12	1.07	1.23	0.757	1.09	1.11	0.943	1.02	1.1	1.22										
NCI-H441	1.02	1.16	0.995	1.09	1.05	0.96	1.07	0.938	0.884	0.993	0.482	0.452	0.464	0.37	0.499	0.501	0.752	0.506	0.583	0.622

Cell Line	relative viability (Mirin + Foretinib; first compound 0.25 µM)	relative viability (Mirin + Foretinib; first compound 0.7906 µM)	relative viability (Mirin + Foretinib; first compound 2.5 µM)	relative viability (Mirin + Foretinib; first compound 7.906 µM)	relative viability (Mirin + Foretinib; first compound 25 µM)	relative viability ([1]; first compound 0.04 µM)	relative viability ([1]; first compound 0.1265 µM)	relative viability ([1]; first compound 0.4 µM)	relative viability ([1]; first compound 1.265 µM)	relative viability ([1]; first compound 4 µM)	relative viability ([2]; first compound 0.04 µM)	relative viability ([2]; first compound 0.1265 µM)	relative viability ([2]; first compound 0.4 µM)	relative viability ([2]; first compound 1.265 µM)	relative viability ([2]; first compound 4 µM)	relative viability ([3]; first compound 0.04 µM)	relative viability ([3]; first compound 0.1265 µM)	relative viability ([3]; first compound 0.4 µM)	relative viability ([3]; first compound 1.265 µM)	relative viability ([3]; first compound 4 µM)
NCI-H1792											0.585	0.389	0.403		0.522					
LXF-289	1.04	1.03	0.939	1.09	1.01	1.03	0.949	0.971	0.937	0.934	0.709	0.696	0.659	0.684	0.67	0.168	0.175	0.206	0.16	0.192
HCC-827	1.03	1.08	1.06	1.06	1.23	0.962	0.945	1.02		0.826	0.483	0.51	0.544	0.497	0.553	0.441	0.409	0.397		0.435
EMC-BAC-2	0.976	0.998	1.07	1.06	1.09	1	0.943	1.03		0.914		0.857	0.841	0.891	0.951	0.293	0.3	0.279		0.268
NCI-H596	0.826	0.953	1.03	0.916	1.08	0.861	1.13	0.818		0.966	0.821	0.804	0.724	0.788	0.647	0.921	0.949	0.758		1.04
NCI-H1755	1	0.918	0.963	0.931	1.05	0.895	0.86	0.844	0.743	0.88	0.828	0.769	0.759	0.68	0.799	0.627	0.503	0.596	0.515	0.521
NCI-H1993	0.716		0.821	0.76	0.824	0.844	0.73	0.668	0.682	0.668	0.493	0.658	0.552	0.549	0.644	0.627	0.509	0.597	0.566	0.493
NCI-H2347	1.08	0.652	1.17	0.683	0.879	0.8	0.714	0.798		0.896	0.295	0.333	0.313	0.249	0.293	0.405	0.454	0.579	0.389	0.513
SW 900	1.02	1.19	1.1	0.866	0.827	0.778	0.825	0.81	0.795	0.793	0.545	0.679	0.857		0.7	0.538	0.585	0.497	0.548	0.523
NCI-H1437	1.31	1.31	1.22	1.2	1.19	1.23	1.14	1.15	1.15	1.08	0.539	0.42	0.421	0.423	0.438	0.419	0.364	0.366	0.367	0.294
NCI-H1299	1.1	1.15	1.07	1.12	1.24	1.1	1.02	1.12	1.11	1.08										
NCI-H1563	0.962	0.974	0.865	1.03	0.875	0.961	1.01	0.938	0.844	0.917										
Calu-6	0.902	1.03	0.918	0.903	0.865	0.91	0.841	0.889	0.807	0.782										
NCI-H1703	0.309	0.31	0.368	0.413	0.3	0.344	0.366	0.369	0.381	0.372										
EBC-1	0.103	0.116	0.102	0.102	0.0881	0.107	0.0909	0.0948	0.0919	0.112										
HCC-44											1.06	0.994	1.02	0.963	0.915	0.955	0.962	0.905	0.597	1.06
NCI-H1648											0.555			0.391	0.519	0.538	0.429		0.362	0.345
NCI-H522											0.797	0.848	0.761	0.692	0.795	0.59	0.591	0.467	0.518	0.499
A549	0.89	1.02	0.902	0.956	1.04	0.851	0.903	0.937	0.816	0.905										
